Source: patent publication US20200369728A1, “PEPTIDOMIMETIC MACROCYCLES AND USES THEREOF” (Aileron Therapeutics, Inc., priority 2015, published 2020)
Bridge positions count the residues as written; N and C are the ends. Square brackets hold non-standard residues; d marks the D form. Peptide text beside a SMILES is read from it. R8 = C=CCCCCCC[C@@](C)(N)C(=O)O; S5 = C=CCCC[C@](C)(N)C(=O)O; Nle = CCCC[C@H](N)C(=O)O

Assays:
SJSA-1 = assay: Cell viability assay (MTT), SJSA-1; conditions: read-out: SJSA-1 EC50 (72 h); 72 h, MTT
SJSA-1 cells = assay: Cell lysis by peptidomimetic macrocycles (LDH release); format: cell-based; conditions: SJSA-1, 1 h
Outline: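 SJSA-1 cells plated the day before, switched to RPMI with 1% FBS, then exposed 1 h at 37 °C to macrocycle at final 50 μM to 6.25 μM in 0.5% DMSO. LDH released into the supernatant was measured by kit. Controls: 0.5% DMSO (non-lytic), 10 μM melittin and 1% Triton X-100 (lytic).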

[1] = Circular dichroism (CD) analysis of alpha-helicity; format: physicochemical; conditions: for Molar Ellipticity TFE − Molar Ellipticity Benign / Molar Ellipticity 50% TFE (222 in 50% TFE) / Molar Ellipticity Benign (222 in 0% TFE): 222 nm; for Molar Ellipticity 50% TFE (222 in 50% TFE): CD buffer with 50% TFE; for Molar Ellipticity 50% TFE (222 in 50% TFE) / Molar Ellipticity Benign (222 in 0% TFE): 0.05 mg/ml, 4° C.; for Molar Ellipticity Benign (222 in 0% TFE): benign CD buffer (20 mM phosphoric acid, pH 2); for % Helix benign compared to 50% TFE parent (CD): benign buffer
Method: Peptide solutions were analyzed by CD spectroscopy using a Jasco J-815 spectropolarimeter (Jasco Inc., Easton, Md.) with the Jasco Spectra Manager Ver. 2 system software. A Peltier temperature controller was used to maintain temperature control of the optical cell. Results are expressed as mean molar ellipticity (deg cm^2 dmol^−1) as calculated from the equation [0]=θobs·MRW/10*l*c where θobs is the observed ellipticity in millidegrees, MRW is the mean residue weight of the peptide (peptide molecular weight/number of residues), 1 is the optical path length of the cell in centimeters, and c is the peptide concentration in mg/ml. Peptide concentrations were determined by amino acid analysis. Stock solutions of peptides were prepared in benign CD buffer (20 mM phosphoric acid, pH 2). The stocks were used to prepare peptide solutions of 0.05 mg/ml in either benign CD buffer or CD buffer with 50% trifluoroethanol (TFE) for analyses in a 10 mm pathlength cell. Variable wavelength measurements of peptide solutions were scanned at 4° C. from 195 to 250 nm, in 0.2 nm increments, and a scan rate 50 nm per minute. The average of six scans was reported.

RKO = assay: Cell viability assay (MTT), RKO; conditions: read-out: RKO EC50 (72 h)
Caspase 3 = Caspase 3 detection assay in SJSA1 cells; format: cell-based; conditions: SJSA1, 48 h, Caspase 3 activation over DMSO-treated cells

% Helix 50% TFE compared to 50% TFE parent (CD) [1]	Molar Ellipticity TFE − Molar Ellipticity Benign [1]	Molar Ellipticity 50% TFE (222 in 50% TFE) [1]	Molar Ellipticity Benign (222 in 0% TFE) [1]	% Helix benign compared to 50% TFE parent (CD) [1]	Compound	EC50 (SJSA-1)	6.25 μM % Lysed cells (1 h LDH) (SJSA-1 cells)	25 μM % Lysed cells (1 h LDH) (SJSA-1 cells)	50 μM % Lysed cells (1 h LDH) (SJSA-1 cells)	EC50 (RKO)	caspase 0.3 μM (Caspase 3)	caspase 1 μM (Caspase 3)	caspase 3 μM (Caspase 3)	caspase 10 μM (Caspase 3)	caspase 30 μM (Caspase 3)
					CC(=O)N[C@@H](CC(C)C)C(=O)N[C@H](C(=O)N[C@@H](Cc1ccccc1)C(=O)N[C@]1(C)CCCCCCC=CCCC[C@@](C)(C(=O)N[C@@H](C)C(=O)N[C@H](C)C(=O)N[C@@H](C)C(=O)N[C@@H](C)C(=O)N[C@@H](C)C(=O)N[C@H](C)C(N)=O)NC(=O)[C@H](CC(C)C)NC(=O)[C@H](CCC(N)=O)NC(=O)[C@H](C)NC(=O)[C@H](Cc2c[nH]c3ccccc23)NC(=O)[C@H](Cc2ccc(O)cc2)NC(=O)[C@H](CCC(=O)O)NC1=O)[C@@H](C)O [compound 568]	5 to 15 µM									
137.3%	−20045.4 deg cm^2 dmol^−1	−19921.4 deg cm^2 dmol^−1	124 deg cm^2 dmol^−1	−0.9%	CC(=O)N[C@@H](CC(C)C)C(=O)N[C@H](C(=O)N[C@@H](Cc1ccccc1)C(=O)N[C@]1(C)CCCCCCC=CCCC[C@@](C)(C(=O)N[C@@H](CO)C(=O)N[C@@H](C)C(=O)N[C@@H](Cc2ccccc2)C(N)=O)NC(=O)[C@H](CC(C)C)NC(=O)[C@H](CCC(N)=O)NC(=O)[C@H](C)NC(=O)[C@H](Cc2c[nH]c3ccccc23)NC(=O)[C@H](Cc2ccc(O)cc2)NC(=O)[C@H](C)NC1=O)[C@@H](C)O [compound 7] (Ac-LTF[R8]AYWAQL[S5]SAF-NH2; staple 4-11)		0%	0%	0%	< 5 µM	0.93	1.4	5.08	21.7	23.96
116.4%	2912.9 deg cm^2 dmol^−1	−18247.4 deg cm^2 dmol^−1	−15334.5 deg cm^2 dmol^−1	97.8%	CC(=O)N[C@@H](CC(C)C)C(=O)N[C@H](C(=O)N[C@@H](Cc1ccccc1)C(=O)N[C@]1(C)CCCCCCC=CCCC[C@@](C)(C(=O)N[C@@H](Cc2c[nH]cn2)C(=O)N[C@@H](Cc2c[nH]cn2)C(=O)N[C@@H](CC(C)C)C(=O)N[C@H](C)C(N)=O)NC(=O)[C@H](CC(C)C)NC(=O)[C@H](CCC(N)=O)NC(=O)[C@H](C)NC(=O)[C@H](Cc2c[nH]c3ccccc23)NC(=O)[C@H](Cc2ccc(O)cc2)NC(=O)[C@H](C)NC1=O)[C@@H](C)O [compound 43] (Ac-LTF[R8]AYWAQL[S5]HHL[dA]-NH2; staple 4-11)		0%	−1%	−1%						
123.9%	−17760.8 deg cm^2 dmol^−1	−17974 deg cm^2 dmol^−1	−213.2 deg cm^2 dmol^−1	1.5%	CC(=O)N[C@@H](CC(C)C)C(=O)N[C@H](C(=O)N[C@@H](Cc1ccccc1)C(=O)N[C@]1(C)CCCCCCC=CCCC[C@@](C)(C(=O)N[C@@H](C)C(=O)N[C@@H](C)C(=O)N[C@@H](C)C(=O)N[C@H](C)C(N)=O)NC(=O)[C@H](CC(C)C)NC(=O)[C@H](CCC(N)=O)NC(=O)[C@H](C)NC(=O)[C@H](Cc2c[nH]c3ccccc23)NC(=O)[C@H](Cc2ccc(O)cc2)NC(=O)[C@H](C)NC1=O)[C@@H](C)O (single isomer, unassigned) [compound 230]		0.5%	0%	3%		1		2	3	11
106.1%	16225.2 deg cm^2 dmol^−1	−16623.4 deg cm^2 dmol^−1	−398.2 deg cm^2 dmol^−1	2.5%	CC(=O)N[C@@H](CC(C)C)C(=O)N[C@H](C(=O)N[C@@H](Cc1ccccc1)C(=O)N[C@]1(C)CCCCCCC=CCCC[C@@](C)(C(=O)N[C@@H](CO)C(=O)N[C@@H](C)C(=O)N[C@@H](C)C(N)=O)NC(=O)[C@H](CC(C)C)NC(=O)[C@H](CCC(N)=O)NC(=O)[C@H](C)NC(=O)[C@H](Cc2c[nH]c3ccccc23)NC(=O)[C@H](Cc2ccc(O)cc2)NC(=O)[C@H](C)NC1=O)[C@@H](C)O [compound 11] (Ac-LTF[R8]AYWAQL[S5]SAA-NH2; staple 4-11)		−2%	2%	3%	< 5 µM	1		5	23	33.5
136%		−21319.4 deg cm^2 dmol^−1	−909 deg cm^2 dmol^−1	5.8%	CCCC[C@H](NC(=O)[C@H](CCC(N)=O)NC(=O)[C@H](CCC(N)=O)NC(=O)[C@]1(C)CCCC=CCCCCCC[C@@](C)(NC(=O)[C@H](Cc2ccccc2)NC(C)=O)C(=O)N[C@@H](C)C(=O)N[C@@H](Cc2ccc(O)cc2)C(=O)N[C@@H](Cc2c[nH]c3ccccc23)C(=O)N[C@@H]([C@@H](C)O)C(=O)N[C@@H](C)C(=O)N[C@@H](CC(C)C)C(=O)N1)C(=O)N[C@@H](C(N)=O)C(C)C [compound 41] (Ac-F[R8]AYWTAL[S5]QQ[Nle][dV]-NH2; staple 2-9)										
					CC(=O)N[C@@H](CC(C)C)C(=O)N[C@H](C(=O)N[C@@H](Cc1ccccc1)C(=O)N[C@]1(C)CCCCCCC=CCCC[C@@](C)(C(=O)N[C@@H](C)C(=O)N[C@@H](C)C(=O)N[C@@H](C)C(=O)N[C@@H](C)C(=O)N[C@@H](C)C(=O)N[C@@H](C)C(=O)N[C@H](C)C(N)=O)NC(=O)[C@H](CC(C)C)NC(=O)[C@H](CCC(N)=O)NC(=O)[C@H](C)NC(=O)[C@H](Cc2c[nH]c3ccccc23)NC(=O)[C@H](Cc2ccc(O)cc2)NC(=O)[C@H](C)NC1=O)[C@@H](C)O (single isomer, unassigned) [compound 316]		0%	0%	1%	< 5 µM	6.5	10.5	21	32	32.5

Compound	% Helix 50% TFE compared to 50% TFE parent (CD) [1]	Molar Ellipticity TFE − Molar Ellipticity Benign [1]	Molar Ellipticity 50% TFE (222 in 50% TFE) [1]	Molar Ellipticity Benign (222 in 0% TFE) [1]	% Helix benign compared to 50% TFE parent (CD) [1]	EC50 (SJSA-1)	6.25 μM % Lysed cells (1 h LDH) (SJSA-1 cells)	25 μM % Lysed cells (1 h LDH) (SJSA-1 cells)	50 μM % Lysed cells (1 h LDH) (SJSA-1 cells)	EC50 (RKO)	caspase 0.3 μM (Caspase 3)	caspase 1 μM (Caspase 3)	caspase 3 μM (Caspase 3)	caspase 10 μM (Caspase 3)	caspase 30 μM (Caspase 3)
CC(=O)N[C@@H](CC(C)C)C(=O)N[C@H](C(=O)N[C@@H](Cc1ccccc1)C(=O)N[C@]1(C)CCCCCCC=CCCC[C@@](C)(C(=O)N[C@@H](C)C(=O)N[C@@H](C)C(=O)N[C@@H](C)C(=O)N[C@@H](C)C(=O)N[C@H](C)C(N)=O)NC(=O)[C@H](CC(C)C)NC(=O)[C@H](CCC(N)=O)NC(=O)[C@H](C)NC(=O)[C@H](Cc2c[nH]c3ccccc23)NC(=O)[C@H](Cc2ccc(O)cc2)NC(=O)[C@H](C)NC1=O)[C@@H](C)O [compound 233]	131.2%	−18554.7 deg cm^2 dmol^−1	−19032.6 deg cm^2 dmol^−1	−477.9 deg cm^2 dmol^−1	3.3%		2.5%	3.5%	6%		6	8	17	22	23
